Laboratory results as given in patent publication US20260184807A1, “Methods for Treating Rheumatoid Arthritis Using a Syndecan-1 Inhibitor or Syntenin-1 Inhibitor” (The United States Government as represented by the …, priority 2022, published 2026).

What was measured:
[1] = system: RA FLS; settings: IL-6/IFNγ signaling; cited from earlier work
[2] = system: RA FLS; settings: cited from earlier work
[3] = system: MΦs; settings: classical and Syntenin-1-differentiated MΦs; cited from earlier work
[4] = system: RA MΦs; experiment: Syntenin-1 stimulation and inhibition in RA MΦs (qRT-PCR, ELISA); format: cell-based, human; settings: Syntenin-1 1000 ng/mL, 6 h or 24 h vs PBS, FIGS. 2B-2E
Method: FIGS. 2A-K show ligation of Syntenin-1 to SDC-1 expands RA MΦ inflammatory profile independent of IL 5R or PDZ1 function. […] Transcription of IRFs (FIG. 2B) and the inflammatory monokines (FIG. 2C) was assessed by qRT-PCR (n=3-10), and protein levels of IL-6 (FIG. 2D) or TNFα (FIG. 2E) were determined in the conditioned media by ELISA (n=10). […] Data are presented as mean±SEM: significant differences were determined by the Mann-Whitney test, two-way-ANOVA, or one-way ANOVA. *p<0.05, **p<0.01, ***p<0.001, ****p<0.0001. ANOVA, analysis of variance.
(B, C) RA MΦs were treated with PBS (ctrl) or Syntenin-1 (1000 ng/mL) for 6 hours and transcription levels of HIF1α (n=10) (FIG. 3B). GLUT1, RAPTOR, HK2, PFK2, PDK1, PKM2 (FIG. 3C) were quantified by qRT-PCR (n=6). […] FIGS. 3H, 3I) after 24 hours impact of treatment was determined on CD14+CD86+ GLUT1+ frequency by flow cytometry (n=4-5). […] Data are presented as mean±SEM; significant differences were determined by Mann-Whitney test, Student's t-test, two-way-ANOVA, or one-way ANOVA. *p<0.05, **p<0.01, ***p<0.001, ****p<0.0001. ANOVA, analysis of variance.
Quantitative Real-Time PCR. […] Transcription to cDNA and subsequent quantitative real-time PCR analysis was performed using the High-Capacity cDNA Reverse Transcription Kit (Applied Biosystems) and TaqMan Gene Expression Master Mix (Applied Biosystems). […]

C[C@@H]1CCN(C(=O)CC#N)C[C@@H]1N(C)c1ncnc2[nH]ccc12 [Tofacitinib]
RA FLS migration [1]: impaired

O=CC[C@@H](O)[C@H](O)[C@H](O)CO [2-DG, 2-deoxy-D-glucose]
GLUT1 and HK2 transcriptional upregulation ([2]; LPS/IFNγ reprogrammed RA FLS): suppressed
upregulation of IRF1/5/7 along with IL-6, IL-8, and CCL2 ([2]; RA FLS differentiated by LPS/IFNγ): reversed
citrate accumulation ([2]; RA FLS reconfigured by LPS/IFNγ): resolved
metabolic activity expanded via GLUT1, LDHA, and lactate [3]: impaired

B1: Syntenin-1: Syntenin-1 protein (1000 ng/ml, NKMAX Co.) used as stimulus (protein, UniProt O00560 2-298, looked up)
Syntenin-1: SLYPSLEDLKVDKVIQAQTAFSANPANPAILSEASAPIPHDGNLYPRLYPELSQYMGLSLNEEEIRANVAVVSGAPLQGQLVARPSSINYMVAPVTGNDVGIRRAEIKQGIREVILCKDQDGKIGLRLKSIDNGIFVQLVQANSPASLVGLRFGDQVLQINGENCAGWSSDKAHKVLKQAFGEKITMTIRDRPFERTITMHKDSTGHVGFIFKNGKITSIVKDSSAARNGLLTEHNICEINGQNVIGLKDSQIADILSTSGTVVTITIMPAFIFEHIIKRMAPSIMKSLMDHTIPEV
expansion of monokines IL-1, TNF-α, IL-6, IL-8 and CCL2 [4]: > 7 fold
